In ChEMBL document CHEMBL1221220, “Transport and signaling via the amino acid binding site of the yeast Gap1 amino acid transceptor” (Nat Chem Biol, 2009):
Substitutions are numbered along the chain they refer to. Active and inactive are the calls of the source. The rule behind the calls is not given here.

Assays:
[1] = test system: T1, General amino-acid permease GAP1 (Saccharomyces cerevisiae), P19145 [I384C]; assay: Induction of yeast Gap1 I384C mutant-mediated trehalose activation at 10 mM
T1 sequence (whole entry): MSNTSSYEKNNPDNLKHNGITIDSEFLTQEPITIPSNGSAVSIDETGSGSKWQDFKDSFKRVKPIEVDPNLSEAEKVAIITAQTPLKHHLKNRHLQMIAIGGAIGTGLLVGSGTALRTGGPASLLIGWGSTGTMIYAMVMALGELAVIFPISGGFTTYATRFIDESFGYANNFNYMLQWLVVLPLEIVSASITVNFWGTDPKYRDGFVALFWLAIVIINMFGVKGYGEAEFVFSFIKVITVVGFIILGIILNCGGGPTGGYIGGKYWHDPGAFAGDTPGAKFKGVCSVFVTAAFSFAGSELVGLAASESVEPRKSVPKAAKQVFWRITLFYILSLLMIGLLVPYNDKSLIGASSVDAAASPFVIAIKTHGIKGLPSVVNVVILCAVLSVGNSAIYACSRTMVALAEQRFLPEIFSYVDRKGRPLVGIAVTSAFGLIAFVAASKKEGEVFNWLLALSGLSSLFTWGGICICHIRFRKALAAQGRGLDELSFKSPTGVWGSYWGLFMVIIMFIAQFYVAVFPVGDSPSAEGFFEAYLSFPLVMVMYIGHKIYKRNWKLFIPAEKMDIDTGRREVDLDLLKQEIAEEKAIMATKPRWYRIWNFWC

[2] = test system: T2, General amino-acid permease GAP1 (Saccharomyces cerevisiae), P19145 [V381C]; assay: Induction of yest Gap1 V381C mutant-mediated trehalose activation at 10 mM
T2 sequence (whole entry): T1 sequence (whole entry) with V381C, C384I

[3] = test system: General amino-acid permease GAP1 (Saccharomyces cerevisiae), P19145 [S392C]; assay: Inhibition of yeast Gap1 S392C mutant-mediated amino acid uptake at 10 mM
[4] = test system: T3, General amino-acid permease GAP1 (Saccharomyces cerevisiae), P19145 [A405C]; assay: Induction of yeast Gap1 A405C mutant-mediated […] activation at 2 mM in presence of 10 mM MTSEA treated before compound addition
T3 sequence (whole entry): T1 sequence (whole entry) with C384I, A405C

[5] = test system: T4, General amino-acid permease GAP1 (Saccharomyces cerevisiae), P19145 [G390C]; assay: Activation of yeast Gap1 G390C mutant-mediated amino acid uptake at 10 mM
T4 sequence (whole entry): T1 sequence (whole entry) with C384I, G390C

Chain of General amino-acid permease GAP1 (Saccharomyces cerevisiae), P19145 [S392C] (P19145 whole entry S392C): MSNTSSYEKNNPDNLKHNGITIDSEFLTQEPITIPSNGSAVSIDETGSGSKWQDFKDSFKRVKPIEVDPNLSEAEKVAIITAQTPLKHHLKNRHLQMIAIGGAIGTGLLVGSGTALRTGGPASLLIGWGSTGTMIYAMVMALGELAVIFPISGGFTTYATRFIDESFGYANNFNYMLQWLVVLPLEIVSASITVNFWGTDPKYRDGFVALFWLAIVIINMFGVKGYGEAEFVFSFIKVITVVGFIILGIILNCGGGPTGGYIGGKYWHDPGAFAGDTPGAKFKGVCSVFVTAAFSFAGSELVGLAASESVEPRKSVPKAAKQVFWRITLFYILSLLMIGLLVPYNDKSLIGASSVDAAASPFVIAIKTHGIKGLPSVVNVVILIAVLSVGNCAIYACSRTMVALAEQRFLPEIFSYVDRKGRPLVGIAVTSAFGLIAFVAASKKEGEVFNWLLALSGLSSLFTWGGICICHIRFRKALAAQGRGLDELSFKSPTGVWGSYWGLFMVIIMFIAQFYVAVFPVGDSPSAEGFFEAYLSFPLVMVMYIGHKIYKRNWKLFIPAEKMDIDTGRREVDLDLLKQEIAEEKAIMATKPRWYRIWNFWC

Activity [1]: inactive
Activity [2]: inactive
inhibition [3]: Active
inhibition [4]: Active
Activity [5]: inactive
Structure (SMILES): NC(=O)NCCC[C@H](N)C(=O)O
